According to patent publication US10869931B2, “Polyethylene glycol-modified angiogenesis inhibitor HM-1 and application thereof” (NANJING ANJI BIOLOGICAL TECHNOLOGY CO.,LTD, priority 2016, dated 2020):
Several values for one entry are separate records, joined by “and”; a condition that tells them apart may be missing. Equal values may be shown once. Where no end group is shown, it is not given here.

Tests used:
[1] = system: Esophageal cancer tumor cells; assay: MTT proliferation inhibition, esophageal cancer cells; type: cell-based, human; design: concentration or dose not given beside the values; settings: 48 h
Experimental: (§1) The activity of mPEG-HM-1 to inhibit the growth of various tumor cells was examined by MTT assay. The tumor cells were cultured to a concentration of 90% or more in a 37° C., 5% CO2 incubator and collected by trypsinization. The cells were resuspended in the culture medium and counted under a microscope to adjust the cell concentration to 2×10^4 cells/mL, the cell suspension was inoculated into a 96-well plate at 100 μL/well and incubated overnight at 37° C. in a 5% CO2 incubator. mPEG-HM-1 was diluted with the culture solution to each predetermined concentration. Docetaxel is diluted to the final concentration with the culture medium. After the cells were fully attached, each dilution was added to a 96-well plate (100 μL/well). The mPEG-HM-1 dilution was added as a drug-administered group, and docetaxel was added as a positive control group, and a culture solution without any drug was used as a negative control group. Incubate for 48 h at 37° C. in a 5% CO2 incubator. 5 mg/mL of MTT was added to a 96-well plate at 20 μL per well, and incubation was continued for 4 hours. The medium was aspirated, dissolved in 150 μL of DMSO per well, and gently mixed by shaking for 10 min. The absorbance was measured at a measurement wavelength of 570 nm and a reference wavelength of 630 nm using a microplate reader, and the rate of growth inhibition (proliferation inhibition, PI) was calculated. The formula is as follows: PI (%)=1−administration group/negative group
(§2) The test was repeated 3 times independently, and the results obtained by the test were expressed as mean±SD, and the test results are shown in Table 15 to Table 18.

[2] = system: choroidal neovascularization in BN rats; assay: Laser-induced choroidal neovascularization in BN rats (FFA); type: in vivo, rat; settings: for incidence of CNV: BN rats, 28 days after administration, intravitreal once daily for 1 week
Experimental: 6-8 weeks old male BN rats were anesthetized with 846 compound anesthetic 0.5 mL/kg administered intraperitoneally. The eye drops of compound tropamide eyes were used 5 minutes before laser photocoagulation, and the pupils of both eyes were fully scattered. Fix animals, with the aid of −53.00 D contact lens, around the optic disc and along the same distance from the optic disc 2PD, the laser beam photocoagulation were performed to make a total of 8 photo-condensation spots, with laser wavelength of 647.1 nm, power of 350 mW, photocoagulation spot diameter and time were 50 μm and 0.05 s, respectively. Immediately after photocoagulation, fundus photography was performed. FFA, histopathology and transmission electron microscopy were performed at 3, 7, 14, 21, and 28 days after photocoagulation.
It was confirmed by fundus photography and FFA examination that the fluorescein leakage of photocoagulation peaked on the 21st day after photocoagulation, and histopathological examination was performed at the same time. […] A large number of neovascular vessels were seen, and red blood cells were visible in the lumen. Microscopically, capillary cells in the choroidal melanocytes were cohesively altered and endothelial cells aggregated.
Rats that were successfully modeled were randomly divided into groups of 5 rats each. They were labeled as negative control group, mPEG-SC-HM-1 treatment group, mPEG2-NHS-HM-1 treatment group, mPEG-ALD-HM-1 treatment group and mPEG-bALD-HM-1 treatment group, respectively. Saline, mPEG-HM-1 (see Table 53 for dosing) was administered intravitreally, once daily for 1 week. FFA examinations were performed 3 days, 7 days, 14 days, and 28 days after administration of the modified peptides.

[3] = system: Prostate cancer tumor cells; assay: MTT proliferation inhibition, prostate cancer cells; type: cell-based, human; design: concentration or dose not given beside the values; settings: 48 h
Experimental: as §1, §2

sarcoma tumor cells = assay: MTT proliferation inhibition, sarcoma cells; type: cell-based, human; design: concentration or dose not given beside the values; settings: 48 h
Experimental: as §1, §2

[4] = system: Thyroid cancer tumor cells; assay: MTT proliferation inhibition, thyroid cancer cells; type: cell-based, human; design: concentration or dose not given beside the values; settings: 48 h
Experimental: as §1, §2

[5] = system: Head and neck cancer tumor cells; assay: MTT proliferation inhibition, head and neck cancer cells; type: cell-based, human; design: concentration or dose not given beside the values; settings: 48 h
Experimental: as §1, §2

[6] = system: neovascularization in rat model of premature retinopathy; assay: Fluctuating-oxygen rat model of premature retinopathy (endothelial nuclei count); type: in vivo; settings: day 14
Experimental: A fluctuating oxygen-induced animal model was used to randomly divide the newborn rats that were naturally delivered on the same day (within 12 hours) into three groups: the oxygenated model group, the oxygenated treatment group, and the normal control group. The oxygenated model group was subdivided into three subgroup models and along with the oxygenated treatment group was placed in a semi-closed oxygen chamber made of plexiglass. The chamber was connected to medical oxygen, and the oxygen analyzer was adjusted to a concentration of 80%±2%. After 24 hours, Nitrogen gas was introduced into the oxygen chamber, and the oxygen concentration was adjusted to 10%±2% and maintained for 24 h. This process was repeated, so that the oxygen concentration in the oxygen chamber is switched between 80% and 10% every 24 hours, and then transferred to the air for 7 days. The oxygen concentration was monitored 8 times a day, and the ambient temperature in the control cabin was 23° C.±2° C. Bedding change, adding food, changing water and replacing mother rats were performed once a day. The normal control group was placed in an animal facility environment. […] The oxygenated therapeutic components were divided into four subgroups, and on the 7th day of modeling, mPEG-SC-HM-1, mPEG2-NHS-HM-1, mPEG-ALD10k-HM-1, and mPEG-bALD-HM-1 were respectively administered by intravitreal injection. Only normal saline was administered to the oxygen model group and the control group. The administrations continued for 1 week. […] After immersion in wax, serial section at thickness of 4 μm was performed, wherein the sections were kept away from the optic disc. The sections are parallel to the sagittal plane of the cornea to the optic disc. Ten sections per eyeball were randomly selected from each eyeball to be stained with hematoxylin and eosin, and the number of vascular endothelial cells that broke through the retinal inner membrane was counted (only the vascular endothelial nucleus closely related to the inner retinal membrane was counted), and the average numbers of endothelial cells per eyeball per slice was counted.

[7] = Day 3 after administration, 25 μg intravitreally once daily for 1 week (Table 53)
[8] = Day 3 after administration, 25 μg intravitreally once daily for 1 week (Table 53), total spots 290-296 by table
[9] = Day 7, 25 μg intravitreally once daily for 1 week (Table 53)
[10] = Day 7, 25 μg intravitreally once daily for 1 week (Table 53), total spots 182-188 by table
[11] = Day 14, 25 μg intravitreally once daily for 1 week (Table 53)
[12] = Day 14, 25 μg intravitreally once daily for 1 week (Table 53), total spots 132-138 by table
[13] = Day 28, 25 μg intravitreally once daily for 1 week (Table 53)
[14] = Day 28, 25 μg intravitreally once daily for 1 week (Table 53), total spots 67-71 by table
[15] = 25 μg intravitreal for 1 week from day 7, vascular endothelial nuclei breaking through inner retinal membrane per slice
[16] = Day 3 after administration, 50 μg intravitreally once daily for 1 week (Table 53)
[17] = Day 3 after administration, 50 μg intravitreally once daily for 1 week (Table 53), total spots 290-296 by table
[18] = Day 7, 50 μg intravitreally once daily for 1 week (Table 53)
[19] = Day 7, 50 μg intravitreally once daily for 1 week (Table 53), total spots 182-188 by table
[20] = Day 14, 50 μg intravitreally once daily for 1 week (Table 53)
[21] = Day 14, 50 μg intravitreally once daily for 1 week (Table 53), total spots 132-138 by table
[22] = Day 28, 50 μg intravitreally once daily for 1 week (Table 53)
[23] = Day 28, 50 μg intravitreally once daily for 1 week (Table 53), total spots 67-71 by table
[24] = 50 μg intravitreal for 1 week from day 7, vascular endothelial nuclei per slice

Row | Substance | rate of growth inhibition [1] | CNV Incidence rate [2, 7] | leakage Spots # [2, 8] | CNV Incidence rate [2, 9] | leakage Spots # [2, 10] | CNV Incidence rate [2, 11] | leakage Spots # [2, 12] | CNV Incidence rate [2, 13] | leakage Spots # [2, 14] | rate of growth inhibition [3] | rate of growth inhibition (sarcoma tumor cells) | rate of growth inhibition [4] | rate of growth inhibition [5] | Cell nuclei count [6, 15] | incidence of CNV [2] | CNV Incidence rate [2, 16] | leakage Spots # [2, 17] | CNV Incidence rate [2, 18] | leakage Spots # [2, 19] | CNV Incidence rate [2, 20] | further results
1 | mPEG2-NHS5k-Arg-Gly-Ala-Asp-Arg-Ala-Gly-Gly-Gly-Gly-Arg-Gly-Asp ({mPEG2‑NHS 5 kDa}-RGADRAGGGGRGD) [mPEG2-NHS5k-HM-1] | 41.35 ± 11.32% | 56.12% | 165 | 55.49% | 101 | 45.99% | 63 | 48.53% | 33 | 39.33 ± 12.01% | 38.41 ± 11.10% | 36.23 ± 12.15% | 37.13 ± 11.32% | 9.212 ± 3.134 |  |  |  |  |  |  | 
2 | mPEG2-NHS10k-Arg-Gly-Ala-Asp-Arg-Ala-Gly-Gly-Gly-Gly-Arg-Gly-Asp ({mPEG2‑NHS 10 kDa}-RGADRAGGGGRGD) [mPEG2-NHS10k-HM-1] | 48.12 ± 12.85% |  |  |  |  |  |  |  |  | 42.39 ± 12.65% | 43.59 ± 12.39% | 40.47 ± 12.03% | 43.52 ± 11.16% |  | 39.71% | 50.34% | 148 | 48.35% | 88 | 43.07% | leakage Spots # [2, 21]: 59; CNV Incidence rate [2, 22]: 39.71%; leakage Spots # [2, 23]: 27; Cell nuclei count [6, 24]: 8.786 ± 3.072
3 | mPEG2-NHS20k-Arg-Gly-Ala-Asp-Arg-Ala-Gly-Gly-Gly-Gly-Arg-Gly-Asp ({mPEG2‑NHS 20 kDa}-RGADRAGGGGRGD) [mPEG2-NHS20k-HM-1] | 50.79 ± 14.37% |  |  |  |  |  |  |  |  | 47.75 ± 10.14% | 48.91 ± 10.57% | 43.68 ± 13.61% | 46.18 ± 11.22% |  |  |  |  |  |  |  | CNV Incidence rate ([2]; Day 3 after administration, 100 μg intravitreally once daily for 1 week (Table 53)): 52.72%; leakage Spots # ([2]; Day 3 after administration, 100 μg intravitreally once daily for 1 week (Table 53), total spots 290-296 by table): 155; CNV Incidence rate ([2]; Day 7, 100 μg intravitreally once daily for 1 week (Table 53)): 52.20%; leakage Spots # ([2]; Day 7, 100 μg intravitreally once daily for 1 week (Table 53), total spots 182-188 by table): 95; CNV Incidence rate ([2]; Day 14, 100 μg intravitreally once daily for 1 week (Table 53)): 45.99%; leakage Spots # ([2]; Day 14, 100 μg intravitreally once daily for 1 week (Table 53), total spots 132-138 by table): 63; CNV Incidence rate ([2]; Day 28, 100 μg intravitreally once daily for 1 week (Table 53)): 42.65%; leakage Spots # ([2]; Day 28, 100 μg intravitreally once daily for 1 week (Table 53), total spots 67-71 by table): 29; Cell nuclei count ([6]; 100 μg intravitreal for 1 week from day 7, vascular endothelial nuclei per slice): 7.683 ± 2.914
4 | mPEG2-NHS40k-Arg-Gly-Ala-Asp-Arg-Ala-Gly-Gly-Gly-Gly-Arg-Gly-Asp ({mPEG2‑NHS 40 kDa}-RGADRAGGGGRGD) [mPEG2-NHS40k-HM-1] | 48.65 ± 12.64% |  |  |  |  |  |  |  |  | 45.91 ± 11.74% | 46.46 ± 11.54% | 45.19 ± 14.07% | 40.36 ± 10.53% |  |  |  |  |  |  |  | CNV Incidence rate ([2]; Day 3 after administration, 200 μg intravitreally once daily for 1 week (Table 53)): 51.02%; leakage Spots # ([2]; Day 3 after administration, 200 μg intravitreally once daily for 1 week (Table 53), total spots 290-296 by table): 150; CNV Incidence rate ([2]; Day 7, 200 μg intravitreally once daily for 1 week (Table 53)): 51.10%; leakage Spots # ([2]; Day 7, 200 μg intravitreally once daily for 1 week (Table 53), total spots 182-188 by table): 93; CNV Incidence rate ([2]; Day 14, 200 μg intravitreally once daily for 1 week (Table 53)): 44.53%; leakage Spots # ([2]; Day 14, 200 μg intravitreally once daily for 1 week (Table 53), total spots 132-138 by table): 61; CNV Incidence rate ([2]; Day 28, 200 μg intravitreally once daily for 1 week (Table 53)): 41.18%; leakage Spots # ([2]; Day 28, 200 μg intravitreally once daily for 1 week (Table 53), total spots 67-71 by table): 28; Cell nuclei count ([6]; 200 μg intravitreal for 1 week from day 7, vascular endothelial nuclei per slice): 8.495 ± 3.036
5 | mPEG-ALD5k-Arg-Gly-Ala-Asp-Arg-Ala-Gly-Gly-Gly-Gly-Arg-Gly-Asp ({mPEG‑ALD 5 kDa}-RGADRAGGGGRGD) [mPEG-ALD5k-HM-1] | 44.63 ± 10.86% | 55.17% | 160 | 52.75% | 96 | 46.97% | 62 | 46.48% | 33 | 38.47 ± 11.52% | 38.41 ± 12.53% | 40.23 ± 10.05% | 40.71 ± 11.33% | 8.927 ± 2.902 |  |  |  |  |  |  | 
6 | mPEG-ALD10k-Arg-Gly-Ala-Asp-Arg-Ala-Gly-Gly-Gly-Gly-Arg-Gly-Asp ({mPEG‑ALD 10 kDa}-RGADRAGGGGRGD) [mPEG-ALD10k-HM-1] | 65.18 ± 15.16% |  |  |  |  |  |  |  |  | 51.09 ± 11.78% | 53.01 ± 11.42% | 55.30 ± 13.10% | 48.93 ± 12.14% |  | 39.44% and 39.13% | 48.62% | 141 | 46.15% | 84 | 41.67% | leakage Spots # [2, 21]: 55; CNV Incidence rate [2, 22]: 39.44%; leakage Spots # [2, 23]: 28; Cell nuclei count [6, 24]: 7.581 ± 1.903
